Data reported in ChEMBL document CHEMBL1154364, “2-Benzimidazolyl-9-(chroman-4-yl)-purinone derivatives as JAK3 inhibitors” (Bioorg Med Chem Lett, 2009).

target: Tyrosine-protein kinase JAK2 (Homo sapiens, UniProt O60674)
Sequence (O60674 whole entry): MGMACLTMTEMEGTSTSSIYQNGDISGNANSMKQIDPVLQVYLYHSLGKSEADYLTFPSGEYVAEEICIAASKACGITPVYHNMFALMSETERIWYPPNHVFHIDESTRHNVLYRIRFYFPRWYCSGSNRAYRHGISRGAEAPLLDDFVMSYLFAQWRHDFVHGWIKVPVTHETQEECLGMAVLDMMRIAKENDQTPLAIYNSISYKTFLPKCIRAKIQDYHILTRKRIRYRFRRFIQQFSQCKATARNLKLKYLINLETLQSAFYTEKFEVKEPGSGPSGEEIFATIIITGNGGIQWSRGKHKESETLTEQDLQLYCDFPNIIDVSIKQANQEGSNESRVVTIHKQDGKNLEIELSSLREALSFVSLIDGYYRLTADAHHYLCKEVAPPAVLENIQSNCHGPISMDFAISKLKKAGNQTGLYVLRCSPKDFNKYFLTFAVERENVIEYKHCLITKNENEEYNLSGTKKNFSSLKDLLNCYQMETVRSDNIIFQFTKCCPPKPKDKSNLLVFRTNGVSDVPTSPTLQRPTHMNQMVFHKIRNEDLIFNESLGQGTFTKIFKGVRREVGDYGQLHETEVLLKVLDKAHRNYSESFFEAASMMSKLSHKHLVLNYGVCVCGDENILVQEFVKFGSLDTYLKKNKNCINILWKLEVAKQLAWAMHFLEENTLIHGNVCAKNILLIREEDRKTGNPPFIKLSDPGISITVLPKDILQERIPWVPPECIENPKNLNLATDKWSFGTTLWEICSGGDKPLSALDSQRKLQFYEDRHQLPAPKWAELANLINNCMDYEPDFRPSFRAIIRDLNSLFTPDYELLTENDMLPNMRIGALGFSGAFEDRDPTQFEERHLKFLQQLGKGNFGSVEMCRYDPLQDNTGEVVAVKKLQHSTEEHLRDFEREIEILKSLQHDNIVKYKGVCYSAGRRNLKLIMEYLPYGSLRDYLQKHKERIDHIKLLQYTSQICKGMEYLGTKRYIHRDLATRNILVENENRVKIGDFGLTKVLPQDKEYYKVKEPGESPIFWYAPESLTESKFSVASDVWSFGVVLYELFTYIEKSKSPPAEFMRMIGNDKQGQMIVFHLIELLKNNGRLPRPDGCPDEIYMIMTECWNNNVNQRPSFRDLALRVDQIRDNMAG
Description: Inhibition of human JAK2 (532-1132) by time resolved fluorescence assay

Point of comparison: O=c1[nH]c2cnc(-n3cnc4ccccc43)nc2n1C1CCOc2ccc(F)cc21 (racemic), IC50 0.083 µM. Against it:
- O=c1[nH]c2cnc(-n3cnc4ccccc43)nc2n1C1CCOc2c(F)cccc21 (racemic) — 3.4-fold higher, 0.285 µM
- N#Cc1ccc2ncn(-c3ncc4[nH]c(=O)n(C5CCOCC5)c4n3)c2c1 — 5.7-fold higher, 0.47 µM
- O=c1[nH]c2cnc(-n3cnc4ccc(Cl)cc43)nc2n1C1CCOCC1 — 4.7-fold higher, 0.393 µM
- N#Cc1ccc2ncn(-c3ncc4[nH]c(=O)n(Cc5c(Cl)cccc5Cl)c4n3)c2c1 — 19-fold higher, 1.55 µM
- O=c1[nH]c2cnc(-n3cnc4cc(C(F)(F)F)ccc43)nc2n1C1CCOCC1 — 22-fold higher, 1.8 µM
- O=c1[nH]c2cnc(-n3cnc4ccccc43)nc2n1[C@H]1CCOc2c(F)cccc21 — 84-fold higher, 7 µM
- N#Cc1ccc2ncn(-c3ncc4[nH]c(=O)n([C@@H]5CCOc6c(F)cccc65)c4n3)c2c1 — 17-fold lower, 0.005 µM
- O=c1[nH]c2cnc(-n3cnc4ccccc43)nc2n1C1CCOc2ccc(Cl)cc21 (racemic) — 6-fold higher, 0.5 µM
- O=c1[nH]c2cnc(-n3cnc4ccccc43)nc2n1C1CCOc2ccccc21 (racemic) — 2-fold higher, 0.17 µM
- N#Cc1ccc2ncn(-c3ncc4[nH]c(=O)n(Cc5c(F)cccc5F)c4n3)c2c1 — 3-fold lower, 0.028 µM
- O=c1[nH]c2cnc(-n3cnc4ccc(C(F)(F)F)cc43)nc2n1C1CCOCC1 — 6.7-fold higher, 0.56 µM
- O=c1[nH]c2cnc(-n3cnc4ccc(F)cc43)nc2n1Cc1c(F)cccc1F — 3.9-fold higher, 0.32 µM
- O=c1[nH]c2cnc(-n3cnc4ccc(Cl)cc43)nc2n1[C@@H]1CCOc2c(F)cccc21 — within 1.5-fold, 0.056 µM
- O=c1[nH]c2cnc(-n3cnc4ccc(F)cc43)nc2n1C1CCOCC1 — 41-fold higher, 3.4 µM
- O=c1[nH]c2cnc(-n3cnc4ccc(F)cc43)nc2n1Cc1cccc(F)c1F — 12-fold higher, 1 µM
- O=c1[nH]c2cnc(-n3cnc4ccccc43)nc2n1[C@@H]1CCOc2c(F)cccc21 — 4-fold higher, 0.333 µM
- N#Cc1ccc2ncn(-c3ncc4[nH]c(=O)n(Cc5cccc(F)c5F)c4n3)c2c1 — 3.3-fold higher, 0.27 µM
- O=c1[nH]c2cnc(-n3cnc4ccccc43)nc2n1C1CCOc2cc(F)ccc21 (racemic) — within 1.5-fold, 0.095 µM
- O=c1[nH]c2cnc(-n3cnc4ccccc43)nc2n1C1CCOc2cccc(F)c21 (racemic) — within 1.5-fold, 0.097 µM
